Experimental data: the NIST ThermoML archive (doi:10.1016/j.fluid.2007.07.016)

How the values were obtained:
[1] = Liquid; for viscosity: Capillary tube (Ostwald / Ubbelohde) method; for speed of sound: Linear variable-path acoustic interferometer
[2] = xn = mol fraction of the nth substance listed; conditions: 101 kPa, Liquid; for viscosity: Capillary tube (Ostwald / Ubbelohde) method; for speed of sound: Linear variable-path acoustic interferometer

Cc1ccccc1 [toluene]
[1]
Conditions | speed of sound, 288.15 K [m/s] | speed of sound, 298.15 K [m/s] | speed of sound, 308.15 K [m/s] | speed of sound, 318.15 K [m/s] | viscosity, 288.15 K [mPa·s] | viscosity, 298.15 K [mPa·s] | viscosity, 308.15 K [mPa·s] | viscosity, 318.15 K [mPa·s]
101 kPa | 1358.5 | – | – | – | 0.6456 | – | – | –
101.33 kPa | – | 1310.5 | 1266.2 | 1221 | – | 0.5531 | 0.502 | 0.4379

Cc1cc(C)cc(C)c1 [1,3,5-trimethylbenzene]
[1]
Conditions | speed of sound, 288.15 K [m/s] | speed of sound, 298.15 K [m/s] | speed of sound, 308.15 K [m/s] | speed of sound, 318.15 K [m/s] | viscosity, 288.15 K [mPa·s] | viscosity, 298.15 K [mPa·s] | viscosity, 308.15 K [mPa·s] | viscosity, 318.15 K [mPa·s]
101 kPa | 1412.3 | – | – | – | 0.7592 | – | – | –
101.33 kPa | – | 1369.8 | 1325.2 | 1279 | – | 0.6572 | 0.5792 | 0.5066

C1CCOC1 [tetrahydrofuran] + Cc1ccccc1C
[2], x1 = 1
Conditions | speed of sound [m/s] | viscosity [mPa·s]
288.15 K | 1323.1 | 0.5129
298.15 K | 1277.6 | 0.458
308.15 K | 1231.5 | 0.4125
318.15 K | 1187.2 | 0.3762

Cc1cccc(C)c1 [1,3-dimethylbenzene]
[1]
Conditions | speed of sound, 288.15 K [m/s] | speed of sound, 298.15 K [m/s] | speed of sound, 308.15 K [m/s] | speed of sound, 318.15 K [m/s] | viscosity, 288.15 K [mPa·s] | viscosity, 298.15 K [mPa·s] | viscosity, 308.15 K [mPa·s] | viscosity, 318.15 K [mPa·s]
101 kPa | 1373.2 | – | – | – | 0.6696 | – | – | –
101.33 kPa | – | 1326.6 | 1281 | 1243 | – | 0.588 | 0.5229 | 0.4684

C1CCOC1 [tetrahydrofuran] + Cc1cc(C)cc(C)c1
[2], x1 = 1
Conditions | speed of sound [m/s] | viscosity [mPa·s]
288.15 K | 1323.1 | 0.5129
298.15 K | 1277.6 | 0.458
308.15 K | 1231.5 | 0.4125
318.15 K | 1187.2 | 0.3762

C1CCOC1 [tetrahydrofuran] + Cc1ccc(C)cc1
[2], x1 = 1
Conditions | speed of sound [m/s] | viscosity [mPa·s]
288.15 K | 1323.1 | 0.5129
298.15 K | 1277.6 | 0.458
308.15 K | 1231.5 | 0.4125
318.15 K | 1187.2 | 0.3762

Cc1ccccc1 [toluene] + C1CCOC1
[2], x2 = 0
Conditions | speed of sound [m/s] | viscosity [mPa·s]
288.15 K | 1358.5 | 0.6456
298.15 K | 1310.5 | 0.5531
308.15 K | 1266.2 | 0.502
318.15 K | 1221 | 0.4379

Cc1ccc(C)cc1 [1,4-dimethylbenzene]
[1]
Conditions | speed of sound, 288.15 K [m/s] | speed of sound, 298.15 K [m/s] | speed of sound, 308.15 K [m/s] | speed of sound, 318.15 K [m/s] | viscosity, 288.15 K [mPa·s] | viscosity, 298.15 K [mPa·s] | viscosity, 308.15 K [mPa·s] | viscosity, 318.15 K [mPa·s]
101 kPa | 1357.5 | – | – | – | 0.7084 | – | – | –
101.33 kPa | – | 1316.4 | 1268 | 1230.3 | – | 0.611 | 0.5501 | 0.4912

C1CCOC1 [tetrahydrofuran] + Cc1cccc(C)c1
[2], x1 = 1
Conditions | speed of sound [m/s] | viscosity [mPa·s]
288.15 K | 1323.1 | 0.5129
298.15 K | 1277.6 | 0.458
308.15 K | 1231.5 | 0.4125
318.15 K | 1187.2 | 0.3762

c1ccccc1 [benzene]
[1]
Conditions | speed of sound, 288.15 K [m/s] | speed of sound, 298.15 K [m/s] | speed of sound, 308.15 K [m/s] | speed of sound, 318.15 K [m/s] | viscosity, 288.15 K [mPa·s] | viscosity, 298.15 K [mPa·s] | viscosity, 308.15 K [mPa·s] | viscosity, 318.15 K [mPa·s]
101 kPa | 1352.4 | – | – | – | 0.693 | – | – | –
101.33 kPa | – | 1303.5 | 1257.4 | 1207.2 | – | 0.6025 | 0.5395 | 0.467

Cc1ccccc1C [1,2-dimethylbenzene]
[1]
Conditions | speed of sound, 288.15 K [m/s] | speed of sound, 298.15 K [m/s] | speed of sound, 308.15 K [m/s] | speed of sound, 318.15 K [m/s] | viscosity, 288.15 K [mPa·s] | viscosity, 298.15 K [mPa·s] | viscosity, 308.15 K [mPa·s] | viscosity, 318.15 K [mPa·s]
101 kPa | 1388.5 | – | – | – | 0.8623 | – | – | –
101.33 kPa | – | 1350.3 | 1321.4 | 1285.8 | – | 0.7576 | 0.669 | 0.5972

c1ccccc1 [benzene] + C1CCOC1
[2], x2 = 0
Conditions | speed of sound [m/s] | viscosity [mPa·s]
288.15 K | 1352.4 | 0.693
298.15 K | 1303.5 | 0.6025
308.15 K | 1257.4 | 0.5395
318.15 K | 1207.2 | 0.467

C1CCOC1 [tetrahydrofuran]
[1]
Conditions | speed of sound, 288.15 K [m/s] | speed of sound, 298.15 K [m/s] | speed of sound, 308.15 K [m/s] | speed of sound, 318.15 K [m/s] | viscosity, 288.15 K [mPa·s] | viscosity, 298.15 K [mPa·s] | viscosity, 308.15 K [mPa·s] | viscosity, 318.15 K [mPa·s]
101 kPa | 1323.1 | 1277.6 | 1231.5 | 1187.2 | 0.5129 | – | – | –
101.33 kPa | – | 1276.6 | 1231.7 | 1186.4 | – | 0.458 | 0.4125 | 0.3762
